Series [1] is described as follows: Hydrodynamic radius and size distribution of micelles by dynamic light scattering (DLS). Type of series: physicochemical. How it is done: A method of measuring the radius of a micelle is not specifically limited and may be any method generally known in the art. For example, the radius may be measured by a dynamic light scattering (DLS) experiment.
In particular, critical micellar concentrations (CMCs) were measured using hydrophobic fluorescence staining and diphenylhexatriene (DPH), and hydrodynamic radii (Rh) of micelles formed of each material were measured by a dynamic light scattering (DLS) experiment. Measured results are compared to values of DDM as an existing amphipathic molecule (detergent).
Meanwhile, size distributions of the micelles formed of TDTs and NDTs were measured using DLS. Results are illustrated in FIG. 5. TDTs or NDTs were respectively used in an amount of 0.5% by weight. As a result, micelles of TDTs or NDTs were measured as forming a single community.

Series [2] concerns the target T1, melibiose permease (MelB), MelBSt (Salmonella typhimurium, UniProt P30878).
T1 construct: made in house; host or cells: 'Salmonella typhimurium DW2 cell (melB and lacZY)', plasmid pK95AHB/WT MelBSt/CH10
In words: MelB extraction efficiency and stability by SDS-PAGE and western immunoblotting. The note with it: 1.5% by weight, 55° C., 90 minutes. How it is done:
Experiments to measure the extraction efficiency and structural stability of a Salmonella typhimurium melibiose permease (MelB) protein by TDTs or NDTs were conducted. The MelB protein was extracted using TDTs, NDTs, or DDM and then the amounts and structures of extracted proteins were quantitatively analyzed by SDS-PAGE and western immunoblotting. The concentrations of the used amphipathic molecules were 1.5% by weight. Protein extraction was carried out at four temperatures (0, 45, 55 or 65° C.) for 90 minutes to simultaneously evaluate the protein extraction efficiency and stabilization ability of the amphipathic molecules.
In particular, in accordance with a method disclosed in a paper (P. S. Chae, et al., Chemistry. 2013, 19, 15645-15651) published by the present inventors, a protein (MelBSt) was produced using a pK95AHB/WT MelBSt/CH10 plasmid and a Salmonella typhimurium DW2 cell (melB and lacZY) to encode wild-type MelB having a 10-His tag at a C-terminal. In accordance with a method disclosed in a paper (Nat. Commun. 2014, 5, 3009) published by A. S. Ethayathulla, et al., cell proliferation and membrane preparation was carried out. Protein analysis was performed using a Micro BCA kit (Thermo Scientific, Rockford, Ill.). So as to measure the solubilization/stability of MelBSt, a membrane sample including MelBSt (final protein concentration of 10 mg/mL) was mixed with a solubilization buffer (20 mM sodium phosphate, pH 7.5, 200 mM NaCl, 10% glycerol, and 20 mM melibiose) and 1.5% (w/v) DDM, TDTs or NDTs. An extracted product was incubated at four temperatures (0, 45, 55 and 65° C.) for 90 minutes. Ultracentrifugation was carried out for 45 minutes at 4° C. and 355,590 g by means of a Beckman Optima™ MAX ultracentrifuge and a TLA-100 rotor. Subsequently, 20 μg of a protein was separated by SDS-16% PAGE and then subjected to immunoblotting with a Penta-His-HRP antibody (Qiagen, Germantown, Md.).
A general note: A western blot detects proteins with antibodies after separation by electrophoresis.

Another series has as its target T2, MelBEc (Escherichia coli, UniProt P02921).
T2 construct: made in house; host or cells: E. coli DW2, right-side-out membrane vesicles
The series is described as follows: Trp to D2G FRET reversal by melibiose, functional state of solubilized MelBEc. Type of series: biochemical. The note with it: 1.0% by weight, solubilized at 23° C. for 30 minutes. How it is done: So as to investigate functional states of MelB proteins dissolved by amphipathic molecules, Førster resonance energy transfer (FRET) to 2′-(N-dansyl)aminoalkyl-1-thio-β-D-galactopyranoside (D^2G), as a fluorescence ligand, was measured in tryptophan (Trp). […] However, if a protein dissolved by an amphipathic molecule has activity, melibiose substitutes for the coupled D^2G molecule upon addition of the melibiose and thus energy transfer no longer occurs, thereby decreasing fluorescence intensity. Accordingly, the activity of the MelB protein dissolved in DDM or NDT-C11 can be determined by whether reversal of D^2G FRET occurs due to melibiose in Trp. Therefore, the FRET measurement method is an efficient method to measure the membrane protein structural stabilization ability of an amphipathic molecule.
In particular, a right-side-out (RSO) membrane vesicle was prepared by osmotic lysis of an E. coli DW2 cell containing MelBSt or MelBEc and re-suspended with 100 mM KPi (pH 7.5), followed by storing at −80° C. D^2G was provided by H. Ronald Kaback and Gerard Leblanc. A protein concentration of an RSO membrane vesicle in 100 mM KPi, pH 7.5, and 50 mM NaCl was 1 mg/ml concentration. […] An emission wavelength of MelBEc was measured at 465 nm and an emission wavelength of MelBSt was measured at 490 nm. […] Accordingly, fluorescence intensity is decreased. […]

T1 sequence (P30878 whole entry): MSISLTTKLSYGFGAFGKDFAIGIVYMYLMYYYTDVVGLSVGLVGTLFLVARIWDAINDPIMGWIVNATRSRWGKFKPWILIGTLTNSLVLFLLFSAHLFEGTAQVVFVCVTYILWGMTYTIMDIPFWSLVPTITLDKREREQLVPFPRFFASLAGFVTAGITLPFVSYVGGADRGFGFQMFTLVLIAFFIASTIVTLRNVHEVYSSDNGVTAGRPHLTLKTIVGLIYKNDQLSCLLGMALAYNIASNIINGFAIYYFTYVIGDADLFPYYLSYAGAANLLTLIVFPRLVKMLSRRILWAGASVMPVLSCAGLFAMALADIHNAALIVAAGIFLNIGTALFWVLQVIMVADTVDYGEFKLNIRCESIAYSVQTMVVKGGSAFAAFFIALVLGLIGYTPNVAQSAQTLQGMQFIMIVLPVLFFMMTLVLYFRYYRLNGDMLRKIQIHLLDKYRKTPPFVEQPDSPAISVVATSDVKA
T2 sequence (P02921 whole entry): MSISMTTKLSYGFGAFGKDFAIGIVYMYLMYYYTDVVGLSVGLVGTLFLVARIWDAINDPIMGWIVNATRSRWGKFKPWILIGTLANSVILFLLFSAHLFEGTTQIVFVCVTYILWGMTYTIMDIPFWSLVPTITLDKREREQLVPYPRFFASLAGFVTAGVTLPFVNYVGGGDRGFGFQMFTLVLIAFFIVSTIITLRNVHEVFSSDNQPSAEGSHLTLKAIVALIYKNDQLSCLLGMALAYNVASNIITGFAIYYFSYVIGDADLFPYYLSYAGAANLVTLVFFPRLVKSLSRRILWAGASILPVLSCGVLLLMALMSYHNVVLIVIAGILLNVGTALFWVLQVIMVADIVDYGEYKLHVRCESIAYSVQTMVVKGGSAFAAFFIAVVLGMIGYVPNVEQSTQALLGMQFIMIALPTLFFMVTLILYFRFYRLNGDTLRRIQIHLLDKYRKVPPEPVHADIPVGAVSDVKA

On to `CCCCCCCCCCCCOC1OC(CO)C(OC2OC(CO)C(O)C(O)C2O)C(O)C1O` [DDM, n-dodecyl-β-D-maltopyranoside, reference compound], for which the “Rh (hydrodynamic radius of micelles)” value in series [1] stood at 3.4 ± 0.0 nm. Further, the “MelB dissolved / solubilization ability” value in series [2] was “hardly detected”. In addition, the “Functional state of solubilized MelBEc (melibiose binding, FRET)” value on MelBEc was “completely lost”.
Consider `CCCCCCCCCCCC(CCCCCCCCCCC)COCC(CO[C@@H]1OC(CO)[C@@H](O)C(O)C1O)(CO[C@@H]1OC(CO)[C@@H](O)C(O)C1O)CO[C@@H]1OC(CO)[C@@H](O)C(O)C1O` (stereo partly drawn) [NDT-C11], for which the “Rh (hydrodynamic radius of micelles)” value in series [1] was found to be 3.5 ± 0.0 nm. Further, the “MelB dissolved / solubilization ability” value in series [2] is recorded as “most excellent”. For the same molecule, the “Functional state of solubilized MelBEc (melibiose binding, FRET)” value at MelBEc was “effectively maintained”.

For the origin of these results see US10781229B2, “Tris- or neopentyl glycol-based amphiphiles and uses thereof” (Industry-University Cooperation Foundation Hanyang …, priority 2015, dated 2020).
